We go through 17 compounds from PMC12303054, “First-in-class inhibitors of Nsp15 endoribonuclease of SARS-CoV-2: Modeling, synthesis, and enzymatic assay of thiazolidinedione and rhodanine analogs” (The Journal of Biological Chemistry, 2025).

Molecules are shown by their SMILES. Values joined by “and” are separate entries in the source; they are usually repeats but may differ in a detail not shown here. Equal entries are not always repeated. “Also recorded” adds a separate entry of the source. Where two headings read alike, the source gives them in different places.

Data set [1] concerns Nsp15. The note with it: cited from earlier work.
Data set [2] deals with T1, wildtype SARS-CoV-2 Nsp15 (Severe acute respiratory syndrome coronavirus 2, UniProt P0DTD1). Description: biochemical. The following applies: for IC50: 150 nM enzyme, 1.2 μM substrate, 30 min, 25 °C, mean (SD), duplicates; for change of inhibitory effect relative to parent analog: comparison of IC50 values; for IC50 versus time: IC50 calculated every 5 min for 30 min; for inhibition model: extra sum-of-squares F test; for Vmax: fit parameter of mixed inhibition model for the named inhibitor.

Data set [3] can be described thus: in vitro. The class given is cell-based. The following applies: African green monkey, uninfected cells, intracellular ATP. How it is done: (§1) Initially, we grew VeroE6/TMPRSS2 cells overnight in 96-well plates at 10,000 cells per well. The next day, we added increasing concentrations of the tested compound (500, 200, 100, 50, 20, 10, 5, 2, and 1 μM) and DMSO as a control. We let the cells incubate with inhibitors for 24 h. After 24 h, we measured the viability of these cells using the CellTiter-Glo Luminescent Cell Viability Assay (Promega), according to the manufacturer’s instructions. We incubated cells in 100 μl of media with 100 μl of CellTiter-Glo reagent, which contains Ultra-Glo luciferase and the substrate luciferin. The luciferase converts luciferin to luminescent oxyluciferin in the presence of ATP. Viable cells produce more ATP and generate a stronger luminescent signal. We mixed samples by shaking for 10 min and measured luminescence by a VICTOR Nivo Plate Reader (Avantor Science Central).

The subject of data set [4] is SARS-CoV-2 RNA. The format is cell-based. The following applies: 24 h infection, MOI = 0.1.
Data set [5] addresses SARS-CoV-2 Nsp15 (Severe acute respiratory syndrome coronavirus 2, UniProt P0DTD1). Briefly: Reversibility by the dilution method. The class given is biochemical. The following applies: preincubated 60 min, diluted 1:100.
Data set [6] has as its system SARS-CoV-2. Briefly: SARS-CoV-2 plaque assay in VeroE6/TMPRSS2 cells. The format is cell-based. The following applies: for IC50: 24 h infection, MOI = 0.1, read-out: IC50 (viral inhibition, plaque assay).
In data set [7] the target is T1, wildtype SARS-CoV-2 Nsp15. Briefly: Nsp15 inhibition in HEPES buffer assay conditions. The format is biochemical. The note with it: 10 nM Nsp15, 500 nM substrate, 100 μM compound.
In data set [8] the test system is VeroE6/TMPRSS2 cells. Description: in vitro. The format is cell-based. The note with it: uninfected cells, 24 h, intracellular ATP. On the procedure:
as §1

Where [9] appears, read: noncompetitive inhibition model, IC50-to-Ki converter, read-out: Predicted Ki.
Setting [10] is: mixed inhibition model fit, mean ± SD.
The mark [11] stands for this setting: mixed inhibition model fit, mean ± SD, read-out: Ki.
[12] abbreviates: Severe acute respiratory syndrome coronavirus 2, VeroE6/TMPRSS2, 24 h.

On to `Oc1ccc2ccccc2c1SSc1c(O)ccc2ccccc12` [IPA-3], for which, in data set [1], the half-inhibitory concentration (IC50) (commonly the midpoint of a concentration-inhibition curve) was 7 µM and the “inhibition mechanism” value is listed as “irreversibly inhibited Nsp15”.
Consider `O=C1NC(=O)C(=CC=Cc2c3ccccc3cc3ccccc23)S1` [KCO035, 5-(3-anthracen-9-yl-allylidene)-thiazolidine-2,4-dione], for which, in data set [2], the “inhibitory effect on Nsp15 activity” value was “mild inhibitory effect” and half-maximal inhibition (IC50) was put at 7.21 µM. Moreover, the inhibition (as a rule, the share of the control response that was lost under treatment) at 100 µM in data set [2] (100 μM compound) is about 80%. In addition, the inhibition constant Ki (as a rule, a dissociation constant, usually derived from enzyme kinetics or from competition with a known ligand) in data set [2] (setting [9]) is 7.14 µM.
Regarding `O=C1NC(=O)C(=CC=Cc2ccccc2)S1` [KCO036, 5-(3-Phenyl-allylidene)-thiazolidine-2,4-dione], in data set [2], the “inhibitory effect on Nsp15 activity” value was “weak inhibitor”, 9.4 µM corresponded to half-maximal inhibition (IC50) and the “change of inhibitory effect relative to parent analog” value is reported as “reduced inhibitory effect”. Further, the Ki in data set [2] (setting [9]) was 9.33 µM.
Regarding `O=C1NC(=O)C(=CC=Cc2ccnc3ccccc23)S1` [KCO048], in data set [2], the “inhibitory effect on Nsp15 activity” value is on record as “low micromolar concentrations”; the midpoint of inhibition, the IC50, lay at 1.35 µM; the “change of inhibitory effect relative to parent analog” value was “threefold greater inhibitory effect than KCO231”. Moreover, the Ki in data set [2] (setting [9]) is 1.27 µM.
As for `O=C1NC(=S)SC1=CC=Cc1c2ccccc2cc2ccccc12` [KCO230, 5-(3-anthracen-9-yl-allylidene)-2-thioxo-thiazolidin-4-one], in data set [2], half-maximal inhibition (IC50) required 4.58 µM and the “change of inhibitory effect relative to parent analog” value is given as “nearly doubled”. The Ki in data set [2] (setting [9]) is 4.5 µM.
In the same order, the values of `O=C1NC(=O)C(=CC=Cc2cccc3ccccc23)S1` [KCO231, 5-(3-naphthalen-1-yl-allylidene)-thiazolidine-2,4-dione] are 4.41 µM, “doubled the inhibitory effect” and 4.34 µM.
On the same counts, the results for `O=C1NC(=O)C(=CC=Cc2cncc3ccccc23)S1` [KCO234, 5-(3-isoquinolin-4-yl-allylidene)-thiazolidine-2,4-dione] are 7.38 µM, “did not enhance inhibitory activity” and 7.3 µM.
In the same order, the values of `O=C1NC(=O)C(=CC=Cc2cccc3ccncc23)S1` [KCO235, 5-(3-isoquinolin-8-yl-allylidene)-thiazolidine-2,4-dione] are 4.17 µM, “moderate increase in inhibitory effect” and 4.1 µM.
In the case of `O=C1NC(=O)C(=CC=Cc2ccc3cnccc3c2)S1` [KCO236, 5-(3-isoquinolin-6-yl-allylidene)-thiazolidine-2,4-dione], in data set [2], the “inhibitory effect on Nsp15 activity” value is on record as “submicromolar levels”, inhibition was half-maximal at 0.932 µM (IC50) and the “change of inhibitory effect relative to parent analog” value is listed as “moderate increase in inhibitory effect”. Moreover, the inhibitory constant (Ki) in data set [2] (setting [9]) was 0.857 µM.
As to `O=C1NC(=S)SC1=CC=Cc1ccnc2ccccc12` [KCO237, 5-(3-quinolin-4-yl-allylidene)-2-thioxo-thiazolidine-4-one], in data set [2], the “inhibitory effect on Nsp15 activity” value was “submicromolar levels”; the midpoint of inhibition, the IC50, lay at 0.304 µM; the “IC50 versus time” value was “consistent through the period of the assay; also recorded: remained constant over the time of the assay”; the “change of inhibitory effect relative to parent analog” value is “fivefold increase in potency compared with KCO048”. For the same compound, in data set [2], the “inhibition model” value was “reversible mixed inhibition model” and the maximal velocity (Vmax) (commonly the top rate of the reaction or transport when substrate is in excess) is 1.57 ± 0.0568 µM/min. Moreover, the Ki in data set [2] (Cheng–Prusoff equation, noncompetitive inhibition assumed, read-out: predicted Ki) was 0.23 µM. Besides, the α in data set [2] (setting [10]) was 0.343 ± 0.188. In addition, the Ki in data set [2] (setting [11]) turned out to be 0.318 ± 0.134 µM. Moreover, the Ki in data set [2] (setting [9]) was 0.229 µM. Moreover, in data set [3], the CC50 (usually the concentration giving 50% cytotoxicity) at 24 h is over 500 µM. Further, the “intracellular SARS-CoV-2 RNA” value in data set [4] is “significantly reduced viral RNA in a dose-dependent manner”. Also, the “Nsp15 activity after inhibitor dilution” value in data set [5] is “recovered its activity”. Besides, the IC50 in data set [6] was 13.9 ± 1.95 µM. In addition, in data set [6] (setting [12]), the half-maximal inhibitory concentration (IC50) was found to be 14 µM. In addition, the “inhibition under HEPES assay conditions” value in data set [7] is “inhibited Nsp15 more potently than tipiracil under these conditions”.
Regarding `CN1C(=O)SC(=CC=Cc2c3ccccc3cc3ccccc23)C1=O` [KCO238, 3-methyl-5-(3-anthracen-9-yl-allylidene)-thiazolidine-2,4-dione], in data set [2], the “inhibitory effect on Nsp15 activity” value is “did not inhibit Nsp15 activity; also recorded: lose their inhibitory effect” and the concentration for half-maximal inhibition (IC50) is 106 µM.
Turning to `O=C1NC(=S)SC1=CC=Cc1cccc2ccccc12` [KCO249, 5-(3-naphthalen-1-yl-allylidene)-2-thioxo-thiazolidin-4-one], in data set [2], the “inhibitory effect on Nsp15 activity” value is “low micromolar concentrations” and the “change of inhibitory effect relative to parent analog” value is “enhanced its inhibitory effect by sixfold”. In addition, the Ki in data set [2] (setting [9]) is 1.28 µM.
`CN1C(=O)SC(=CC=Cc2cccc3ccccc23)C1=O` [KCO250, 3-methyl-5-(3-naphthalen-1-yl-allylidene)-thiazolidine-2,4-dione]: in data set [2], the “inhibitory effect on Nsp15 activity” value was “did not inhibit Nsp15 activity; also recorded: lose their inhibitory effect” and the IC50 is over 1000 µM.
Consider `O=C1NC(=S)SC1=CC=Cc1cncc2ccccc12` [KCO251, 5-(3-isoquinolin-4-yl-allylidene)-2-thioxo-thiazolidin-4-one], for which, in data set [2], the “inhibitory effect on Nsp15 activity” value is on record as “submicromolar levels”, the IC50 amounted to 0.931 µM, the “IC50 versus time” value is listed as “consistent through the period of the assay; also recorded: remained constant over the time of the assay” and the “change of inhibitory effect relative to parent analog” value is “eightfold increase in inhibition potency”. In addition, in data set [2], the “inhibition model” value is “reversible mixed inhibition model” and the Vmax was found to be 3.38 ± 0.170 µM/min. In data set [2] (setting [10]), this compound gave a α of 0.293 ± 0.280. The inhibition constant Ki in data set [2] (setting [11]) came to 0.471 ± 0.33 µM. Besides, the inhibition constant Ki in data set [2] (setting [9]) is 0.856 µM. In data set [8], this compound came in with a CC50 of 311 ± 120 µM. The same compound had a cytotoxic concentration (CC50) at 24 h in data set [3] of over 300 µM. Besides, in data set [4], the “intracellular SARS-CoV-2 RNA” value is reported as “significantly reduced viral RNA in a dose-dependent manner”. For the same compound, in data set [5], the “Nsp15 activity after inhibitor dilution” value was “recovered its activity”. The “selectivity index (SI)” value in data set [6] (CC50 over IC50) was ~13 and > 10. Moreover, the IC50 in data set [6] (setting [12]) came out at 24 µM. The “inhibition under HEPES assay conditions” value in data set [7] is “inhibited Nsp15 more potently than tipiracil under these conditions”.
As to `O=C1C(SCCO)=C(SCCO)C(=O)c2ccccc21` [NSC95397], in data set [1], the IC50 is 43 µM.
`N=C1CCCN1Cc1nc(O)nc(O)c1Cl` [Tipiracil, tipiracil, reference compound]: the “inhibitory effect on Nsp15 activity” value in data set [2] is reported as “did not inhibit Nsp15 activity”. The IC50 in data set [2] is over 1000 µM; in data set [1], 7.5 µM. In data set [7], the “inhibition under HEPES assay conditions” value was “did inhibit Nsp15 under these conditions but to a lesser extent than KCO237 and KCO251”.
On to `Oc1c(Cl)cc(Cl)c(Cl)c1Cc1c(O)c(Cl)cc(Cl)c1Cl` [hexachlorophene], for which the IC50 in data set [1] was 1 µM.
